According to patent US20240299431A1, “NEW SYNTHETIC AGONISTS OF TLR4 RECEPTOR” (UNIVERSITÀ DEGLI STUDI DI MILANO - BICOCCA, priority 2021, published 2024):

Experiments:
human TLR4 [1] = molecular target: T1, human TLR4 (Homo sapiens, UniProt O00206+Q9Y6Y9); test: Inhibition of LPS-induced SEAP production in HEK-Blue hTLR4 cells (antagonism); assay type: cell-based
T1 construct: host or cells: HEK-Blue hTLR4 (HEK293-derived)

human TLR4 [2] = molecular target: T1, human TLR4; test: HEK-Blue hTLR4 SEAP reporter assay (agonist activity, QUANTI-Blue); assay type: cell-based; settings: HEK-Blue hTLR4 cells, 0.1-25 μM, 18 hours, normalized to LPS
Text: HEK-BIue™ hTLR4 and HEK-BIue™ hTLR2 (InvivoGen) are cell lines designed to study the activation of human TLR4 and TLR2 receptors, respectively, by monitoring the activation of transcription factors NF-kB and AP-1. Stimulation with TLR4 ligands (in the case of HEK-Blue hTLR4) or with TLR2 ligands (in the case of HEK-Blue hTLR2) activates NF-kB and AP-1, inducing the production and release of the SEAP reporter gene (phosphatase secreted embryonic alkaline) in the extracellular environment. The analysis of the reporter gene was performed using the QUANTI-Blue™ colorimetric assay (InvivoGen), a substrate of SEAP, which generates a chromogenic product whose absorbance is read at 630 nm. The agonist activity of the molecules was tested by treating HEK-Blue hTLR4 cells for 18 hours with increasing concentrations of the compounds (0.1-1-10-25 μM) and using MPLA (0.1-1-10 μM) and S-LPS (100 ng/mL) as a reference and positive receptor activation control, respectively. […] The molecules were subsequently tested on the HEK-Blue hTLR2 cell line with the aim of excluding the activation of this receptor. […]
The ability of FP molecules to activate human TLR4 was assessed using HEK-Blue hTLR4 cells. […]

human TLR4 [3] = molecular target: T1, human TLR4; settings: HEK-Blue hTLR4 cells, Experiment 2 of WO2019/092572; cited from earlier work

T1 sequence (O00206 24-839): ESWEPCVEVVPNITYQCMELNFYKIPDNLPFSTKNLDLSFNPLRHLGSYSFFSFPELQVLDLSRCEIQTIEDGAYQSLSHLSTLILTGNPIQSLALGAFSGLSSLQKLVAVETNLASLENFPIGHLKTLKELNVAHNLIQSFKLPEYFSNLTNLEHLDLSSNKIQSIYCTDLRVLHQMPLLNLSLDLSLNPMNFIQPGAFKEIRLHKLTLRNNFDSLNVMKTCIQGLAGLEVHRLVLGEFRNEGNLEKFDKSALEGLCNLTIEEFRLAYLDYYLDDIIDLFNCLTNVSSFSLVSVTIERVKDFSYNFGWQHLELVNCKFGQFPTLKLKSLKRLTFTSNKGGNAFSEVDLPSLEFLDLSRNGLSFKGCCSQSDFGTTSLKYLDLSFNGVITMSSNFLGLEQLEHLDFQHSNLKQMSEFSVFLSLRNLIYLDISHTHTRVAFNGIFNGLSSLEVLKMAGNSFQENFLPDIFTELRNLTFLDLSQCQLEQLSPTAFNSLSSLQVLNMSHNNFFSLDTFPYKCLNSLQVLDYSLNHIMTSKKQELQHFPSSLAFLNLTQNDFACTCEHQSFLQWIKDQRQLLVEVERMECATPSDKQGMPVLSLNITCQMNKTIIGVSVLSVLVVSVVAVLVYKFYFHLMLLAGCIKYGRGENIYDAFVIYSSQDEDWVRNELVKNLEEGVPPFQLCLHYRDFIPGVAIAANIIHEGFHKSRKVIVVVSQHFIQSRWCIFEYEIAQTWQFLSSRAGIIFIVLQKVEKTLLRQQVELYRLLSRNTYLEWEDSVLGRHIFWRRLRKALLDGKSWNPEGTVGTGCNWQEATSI
T1 sequence (Q9Y6Y9 17-160 limits assumed): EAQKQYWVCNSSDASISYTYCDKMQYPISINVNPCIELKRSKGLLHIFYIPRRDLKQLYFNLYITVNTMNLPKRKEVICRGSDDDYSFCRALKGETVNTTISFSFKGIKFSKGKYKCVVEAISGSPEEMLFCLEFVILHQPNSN

CCCCCCCCCCCCCC(=O)NC1[C@H](OP(=O)(O)O)OC(COP(=O)(O)O)[C@@H](OC(=O)CCCCCCCCCCCCC)[C@@H]1OC(=O)CCCCCCCCCCCCC (stereo partly drawn) [FP111]
inhibition of LPS-induced SEAP production (TLR4 antagonistic activity) (human TLR4 [1]): did not inhibit LPS-induced SEAP production
activation of TLR4 (SEAP release, NF-kB and AP-1) (human TLR4 [2]): inactive
TLR4 agonist activity (human TLR4 [3]): completely inactive
